In patent US8158636B2, “Compounds and methods for kinase modulation, and indications therefor” (Plexxikon Inc., priority 2008, dated 2012) one finds IC50 data, which are given here for 24 compounds.

pIC50: −log10 of the molar value.

Holding throughout (format): biochemical
For test [1], the target named is Kdr (Homo sapiens, UniProt P35968). In words: Kinase activity assay, Kdr. The conditions noted are these: Table 1i; read-out: activity toward kinase Kdr, IC50. The text has this: (§1) Assays for the activity of kinases, including, but not limited to, Fms, Kit, B-Raf, B-Raf V600E, c-Raf-1, and TrkA are known in the art, for example as described in US Patent Publication Number US20070032519 and U.S. patent application Ser. No. 11/473,347 (see also, PCT publication WO2007002433), the disclosures of which are hereby incorporated by reference with respect to such assays.

For test [2], the target named is Fms (Homo sapiens, UniProt P07333). Put plainly: Kinase activity assay, Fms. The conditions noted are these: Table 1h; read-out: activity toward kinase Fms, IC50.
Excerpt: as §1

Test [3] addresses Kit (Homo sapiens, UniProt P10721). In words: Kinase activity assay, Kit. The conditions noted are these: Table 1j; read-out: activity toward kinase Kit, IC50.
Excerpt: as §1

Fms, sequence (P07333 20-972): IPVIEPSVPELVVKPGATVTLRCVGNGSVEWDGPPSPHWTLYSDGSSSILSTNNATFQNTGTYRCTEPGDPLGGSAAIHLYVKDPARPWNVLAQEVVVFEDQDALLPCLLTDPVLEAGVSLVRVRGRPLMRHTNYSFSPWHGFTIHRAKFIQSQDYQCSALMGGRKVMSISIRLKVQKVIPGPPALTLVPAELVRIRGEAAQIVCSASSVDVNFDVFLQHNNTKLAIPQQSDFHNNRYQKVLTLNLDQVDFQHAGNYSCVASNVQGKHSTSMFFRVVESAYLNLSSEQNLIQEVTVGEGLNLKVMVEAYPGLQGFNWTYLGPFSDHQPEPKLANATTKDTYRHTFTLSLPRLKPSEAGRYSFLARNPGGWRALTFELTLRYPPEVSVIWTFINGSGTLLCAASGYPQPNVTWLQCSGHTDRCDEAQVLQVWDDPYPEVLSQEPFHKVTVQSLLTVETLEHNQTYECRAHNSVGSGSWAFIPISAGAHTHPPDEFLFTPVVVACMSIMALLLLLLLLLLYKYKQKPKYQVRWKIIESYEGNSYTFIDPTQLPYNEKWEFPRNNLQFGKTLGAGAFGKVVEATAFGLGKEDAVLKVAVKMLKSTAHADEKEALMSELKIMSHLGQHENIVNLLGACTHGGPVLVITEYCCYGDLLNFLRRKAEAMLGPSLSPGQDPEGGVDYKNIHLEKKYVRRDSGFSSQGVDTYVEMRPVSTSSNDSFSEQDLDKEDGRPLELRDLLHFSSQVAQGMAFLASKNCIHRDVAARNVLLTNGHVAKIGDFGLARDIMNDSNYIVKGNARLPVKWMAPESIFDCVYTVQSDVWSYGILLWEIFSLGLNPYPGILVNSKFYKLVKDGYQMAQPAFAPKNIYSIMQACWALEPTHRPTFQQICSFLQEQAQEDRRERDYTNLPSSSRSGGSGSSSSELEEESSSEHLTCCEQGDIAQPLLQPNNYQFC
Kit, sequence (P10721 26-976): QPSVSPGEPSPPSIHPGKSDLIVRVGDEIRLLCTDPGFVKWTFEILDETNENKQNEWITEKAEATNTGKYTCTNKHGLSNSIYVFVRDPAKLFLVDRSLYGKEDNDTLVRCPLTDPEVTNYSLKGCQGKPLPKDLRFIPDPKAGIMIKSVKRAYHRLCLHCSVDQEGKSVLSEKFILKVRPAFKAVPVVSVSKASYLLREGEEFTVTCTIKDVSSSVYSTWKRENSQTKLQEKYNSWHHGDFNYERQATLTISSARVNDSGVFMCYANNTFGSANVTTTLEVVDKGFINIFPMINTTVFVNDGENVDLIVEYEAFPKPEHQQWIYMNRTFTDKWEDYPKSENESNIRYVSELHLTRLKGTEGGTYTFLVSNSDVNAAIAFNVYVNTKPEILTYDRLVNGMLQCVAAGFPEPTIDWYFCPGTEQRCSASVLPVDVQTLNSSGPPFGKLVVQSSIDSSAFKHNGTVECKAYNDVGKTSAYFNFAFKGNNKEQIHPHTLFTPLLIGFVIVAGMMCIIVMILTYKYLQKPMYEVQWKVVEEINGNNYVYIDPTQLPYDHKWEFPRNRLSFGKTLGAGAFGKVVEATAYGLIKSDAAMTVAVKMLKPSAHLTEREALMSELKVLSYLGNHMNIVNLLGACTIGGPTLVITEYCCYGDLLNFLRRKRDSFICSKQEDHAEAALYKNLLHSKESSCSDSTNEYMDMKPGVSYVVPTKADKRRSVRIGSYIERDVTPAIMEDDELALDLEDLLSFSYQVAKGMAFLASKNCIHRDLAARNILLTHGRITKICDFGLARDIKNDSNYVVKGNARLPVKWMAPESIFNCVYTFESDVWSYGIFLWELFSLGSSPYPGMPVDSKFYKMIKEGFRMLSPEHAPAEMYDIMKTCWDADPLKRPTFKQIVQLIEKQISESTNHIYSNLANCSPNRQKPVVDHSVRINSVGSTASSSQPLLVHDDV
Kdr, sequence (P35968 20-1356): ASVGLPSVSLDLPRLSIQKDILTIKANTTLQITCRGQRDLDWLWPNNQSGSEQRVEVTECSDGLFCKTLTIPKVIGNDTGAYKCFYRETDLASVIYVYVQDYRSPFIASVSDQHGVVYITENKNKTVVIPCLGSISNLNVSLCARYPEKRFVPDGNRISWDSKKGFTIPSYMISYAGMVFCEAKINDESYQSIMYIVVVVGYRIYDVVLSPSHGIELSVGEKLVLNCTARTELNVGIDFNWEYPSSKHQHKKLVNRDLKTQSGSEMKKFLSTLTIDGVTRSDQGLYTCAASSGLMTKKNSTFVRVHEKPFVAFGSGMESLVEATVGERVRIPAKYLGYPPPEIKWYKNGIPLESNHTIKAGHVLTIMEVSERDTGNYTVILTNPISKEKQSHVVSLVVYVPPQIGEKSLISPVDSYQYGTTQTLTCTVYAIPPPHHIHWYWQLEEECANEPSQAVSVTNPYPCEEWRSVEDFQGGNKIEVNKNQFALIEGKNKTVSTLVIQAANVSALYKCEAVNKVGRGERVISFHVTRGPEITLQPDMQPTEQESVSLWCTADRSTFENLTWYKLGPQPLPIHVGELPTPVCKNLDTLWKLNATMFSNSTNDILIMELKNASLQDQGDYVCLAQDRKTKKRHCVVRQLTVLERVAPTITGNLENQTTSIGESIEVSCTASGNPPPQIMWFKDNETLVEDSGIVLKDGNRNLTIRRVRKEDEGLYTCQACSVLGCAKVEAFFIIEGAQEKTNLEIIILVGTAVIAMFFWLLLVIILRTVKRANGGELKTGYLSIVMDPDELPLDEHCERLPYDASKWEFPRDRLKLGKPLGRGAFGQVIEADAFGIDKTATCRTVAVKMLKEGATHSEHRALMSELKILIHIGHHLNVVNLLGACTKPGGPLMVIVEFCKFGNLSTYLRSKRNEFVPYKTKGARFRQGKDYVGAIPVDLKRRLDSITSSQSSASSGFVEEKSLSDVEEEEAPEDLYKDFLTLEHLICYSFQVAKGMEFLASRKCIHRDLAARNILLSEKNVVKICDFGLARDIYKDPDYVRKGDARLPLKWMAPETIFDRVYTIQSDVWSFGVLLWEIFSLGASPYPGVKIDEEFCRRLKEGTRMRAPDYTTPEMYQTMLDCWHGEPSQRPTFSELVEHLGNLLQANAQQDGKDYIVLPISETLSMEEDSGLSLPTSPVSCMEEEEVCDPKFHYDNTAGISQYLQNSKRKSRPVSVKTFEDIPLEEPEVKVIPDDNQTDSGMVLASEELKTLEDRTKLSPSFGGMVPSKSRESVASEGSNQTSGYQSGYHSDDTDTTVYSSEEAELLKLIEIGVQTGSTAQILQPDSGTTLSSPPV

Take `FC(F)(F)c1ccc(CNc2ncc(Cc3c[nH]c4ncncc34)cn2)cn1` [P-0030, [5-(7H-Pyrrolo[2,3-d]pyrimidin-5-ylmethyl)-pyrimidin-2-yl]-(6-trifluoromethyl-pyridin-3-ylmethyl)-amine]: the negative logarithm of the IC50 (pIC50) in test [1], in test [2] and in test [3] was no less than 5.00 throughout.

As for `CCc1ccc(CNc2ncc(Cc3c[nH]c4ncncc34)cn2)nc1` [P-0033, (5-Ethyl-pyridin-2-ylmethyl)-[5-(7H-pyrrolo[2,3-d]pyrimidin-5-ylmethyl)-pyrimidin-2-yl]-amine], the pIC50 in test [1], in test [2] and in test [3] was no less than 5.00 in each case.

Regarding `COc1ccc(CNc2ncc(Cc3c[nH]c4ncncc34)cc2F)cn1` [P-0017, [3-Fluoro-5-(7H-pyrrolo[2,3-d]pyrimidin-5-ylmethyl)-pyridin-2-yl]-(6-methoxy-pyridin-3-ylmethyl)-amine], the negative logarithm of the IC50 (pIC50) in test [1], in test [2] and in test [3] was no less than 5.00 each time.

Regarding `Clc1ccc(CNc2ncc(Cc3c[nH]c4ncncc34)cn2)cn1` [P-0029, (6-Chloro-pyridin-3-ylmethyl)-[5-(7H-pyrrolo[2,3-d]pyrimidin-5-ylmethyl)-pyrimidin-2-yl]-amine], the pIC50 in test [1], in test [2] and in test [3] was no less than 5.00 throughout.

For the compound `Fc1nc(NCc2ccncc2Cl)ccc1Cc1c[nH]c2ncncc12` [P-0047, (3-Chloro-pyridin-4-ylmethyl)-[6-fluoro-5-(7H-pyrrolo[2,3-d]pyrimidin-5-ylmethyl)-pyridin-2-yl]-amine], the negative-log IC50 (pIC50) in test [1] and in test [2] was no less than 5.00 each time.

In the case of `c1ccc(CNc2ncc(Cc3c[nH]c4ncncc34)cn2)nc1` [P-0028, Pyridin-2-ylmethyl-[5-(7H-pyrrolo[2,3-d]pyrimidin-5-ylmethyl)-pyrimidin-2-yl]-amine], the negative logarithm of the IC50 (pIC50) in test [2] is no less than 5.00.

Turning to `Fc1nc(NCc2ccnc(N3CCCC3)c2)ccc1Cc1c[nH]c2ncncc12` [P-0059, [6-Fluoro-5-(7H-pyrrolo[2,3-d]pyrimidin-5-ylmethyl)-pyridin-2-yl]-(2-pyrrolidin-1-yl-pyridin-4-ylmethyl)-amine], the negative logarithm of the IC50 (pIC50) in test [1] and in test [2] was no less than 5.00 throughout.

Turning to `Cc1cc(CNc2ncc(Cc3c[nH]c4ncncc34)cn2)ccn1` [P-0035, (2-Methyl-pyridin-4-ylmethyl)-[5-(7H-pyrrolo[2,3-d]pyrimidin-5-ylmethyl)-pyrimidin-2-yl]-amine], the pIC50 in test [2] is no less than 5.00.

For `Cc1cnccc1CNc1ccc(Cc2c[nH]c3ncncc23)c(F)n1` [P-0055, [6-Fluoro-5-(7H-pyrrolo[2,3-d]pyrimidin-5-ylmethyl)-pyridin-2-yl]-(3-methyl-pyridin-4-ylmethyl)-amine], the negative-log IC50 (pIC50) in test [2] is no less than 5.00.

On to `Fc1nc(NCc2ccncc2Br)ccc1Cc1c[nH]c2ncncc12` [P-0046, (3-Bromo-pyridin-4-ylmethyl)-[6-fluoro-5-(7H-pyrrolo[2,3-d]pyrimidin-5-ylmethyl)-pyridin-2-yl]-amine], for which the pIC50 in test [1] and in test [2] was no less than 5.00 in each case.

With `Cc1cc(CNc2ccc(Cc3c[nH]c4ncncc34)c(F)n2)ccn1` [P-0020, [6-Fluoro-5-(7H-pyrrolo[2,3-d]pyrimidin-5-ylmethyl)-pyridin-2-yl]-(2-methyl-pyridin-4-ylmethyl)-amine], the negative-log IC50 (pIC50) in test [1] and in test [2] was no less than 5.00 throughout.

Consider `COc1ccc(CNc2ccc(C(=O)c3c[nH]c4ncncc34)c(C)n2)cn1` [P-0019, {6-[(6-Methoxy-pyridin-3-ylmethyl)-amino]-2-methyl-pyridin-3-yl}-(7H-pyrrolo[2,3-d]pyrimidin-5-yl)-methanone], for which, in test [2], the negative logarithm of the IC50 (pIC50) was no less than 5.00.

Regarding `CNc1ncccc1CNc1ccc(Cc2c[nH]c3ncncc23)c(F)n1` [P-0066, [6-Fluoro-5-(7H-pyrrolo[2,3-d]pyrimidin-5-ylmethyl)-pyridin-2-yl]-(2-methylamino-pyridin-3-ylmethyl)-amine], the pIC50 in test [1] and in test [2] was no less than 5.00 each time.

With `Cc1ccnc(CNc2ccc(Cc3c[nH]c4ncncc34)c(F)n2)c1` [P-0058, [6-Fluoro-5-(7H-pyrrolo[2,3-d]pyrimidin-5-ylmethyl)-pyridin-2-yl]-(4-methyl-pyridin-2-ylmethyl)-amine], the pIC50 in test [1] and in test [2] was no less than 5.00 in each case.

Consider `Fc1cnccc1CNc1ccc(Cc2c[nH]c3ncncc23)c(F)n1` [P-0049, (3-Fluoro-pyridin-4-ylmethyl)-[6-fluoro-5-(7H-pyrrolo[2,3-d]pyrimidin-5-ylmethyl)-pyridin-2-yl]-amine], for which the pIC50 in test [2] is no less than 5.00.

Regarding `COCCc1ncc(CNc2ccc(Cc3c[nH]c4ncncc34)c(F)n2)cn1` [P-0080, [6-Fluoro-5-(7H-pyrrolo[2,3-d]pyrimidin-5-ylmethyl)-pyridin-2-yl]-[2-(2-methoxy-ethyl)-pyrimidin-5-ylmethyl]-amine], in test [2], the pIC50 was no less than 5.00.

As for `Fc1cc(CNc2ccc(Cc3c[nH]c4ncncc34)c(F)n2)ccn1` [P-0074, (2-Fluoro-pyridin-4-ylmethyl)-[6-fluoro-5-(7H-pyrrolo[2,3-d]pyrimidin-5-ylmethyl)-pyridin-2-yl]-amine], the negative logarithm of the IC50 (pIC50) in test [1] and in test [2] was no less than 5.00 in each case.

`CNc1ncc(CNc2ccc(Cc3c[nH]c4ncncc34)c(F)n2)cn1` [P-0042, (5-{[6-Fluoro-5-(7H-pyrrolo[2,3-d]pyrimidin-5-ylmethyl)-pyridin-2-ylamino]-methyl}-pyrimidin-2-yl)-methyl-amine]: the pIC50 in test [2] is no less than 5.00.

As for `COc1ncccc1CNc1ncc(Cc2c[nH]c3ncncc23)cn1` [P-0084, (2-Methoxy-pyridin-3-ylmethyl)-[5-(7H-pyrrolo[2,3-d]pyrimidin-5-ylmethyl)-pyrimidin-2-yl]-amine], the negative-log IC50 (pIC50) in test [2] and in test [3] was no less than 5.00 throughout.

`Fc1ncccc1CNc1ccc(Cc2c[nH]c3ncncc23)c(F)n1` [P-0068, (2-Fluoro-pyridin-3-ylmethyl)-[6-fluoro-5-(7H-pyrrolo[2,3-d]pyrimidin-5-ylmethyl)-pyridin-2-yl]-amine]: the pIC50 in test [1] and in test [2] was no less than 5.00 in each case.

Consider `COc1cc(CNc2ncc(Cc3c[nH]c4ncncc34)cn2)c(F)cn1` [P-0025, (5-Fluoro-2-methoxy-pyridin-4-ylmethyl)-[5-(7H-pyrrolo[2,3-d]pyrimidin-5-ylmethyl)-pyrimidin-2-yl]-amine], for which the pIC50 in test [1] and in test [2] was no less than 5.00 in each case.

As to `COc1ccncc1CNc1ccc(Cc2c[nH]c3ncncc23)c(F)n1` [P-0056, [6-Fluoro-5-(7H-pyrrolo[2,3-d]pyrimidin-5-ylmethyl)-pyridin-2-yl]-(4-methoxy-pyridin-3-ylmethyl)-amine], the pIC50 in test [2] is no less than 5.00.

In the case of `Cc1cnccc1CNc1ncc(Cc2c[nH]c3ncncc23)cn1` [P-0034, (3-Methyl-pyridin-4-ylmethyl)-[5-(7H-pyrrolo[2,3-d]pyrimidin-5-ylmethyl)-pyrimidin-2-yl]-amine], the pIC50 in test [2] is no less than 5.00.

In the case of `Cc1ncc(CNc2ccc(Cc3c[nH]c4ncncc34)c(F)n2)cn1` [P-0048, [6-Fluoro-5-(7H-pyrrolo[2,3-d]pyrimidin-5-ylmethyl)-pyridin-2-yl]-(2-methyl-pyrimidin-5-ylmethyl)-amine], the pIC50 in test [2] was no less than 5.00.
